Results reported in ChEMBL document CHEMBL5579829, “Discovery of a potent CDKs/FLT3 PROTAC with enhanced differentiation and proliferation inhibition for AML” (Eur J Med Chem, 2024).
Activity calls are given as the source filed them. The rule behind the calls is not given here.

Key:
HL-60 [1] = assay: Induction of pro-differentiation of human HL-60 cells assessed as CD11b expression at 2 nM measured after 3 days by immunostaining-based flow cytometry (reference value: 8.32 to 10.55%); format: functional; conditions: time 3 day
[2] = target: Protein cereblon/Receptor-type tyrosine-protein kinase FLT3 (Homo sapiens, UniProt P36888+Q96SW2); assay: Protac activity at CRBN/FLT3-ITD in human HL-60 cells assessed as induction of FLT3 degradation measured after 3 days by Western blot analysis; format: cell-based
[3] = target: Protein cereblon/Cyclin-dependent kinase 9 (Homo sapiens, UniProt P50750+Q96SW2); assay: Protac activity at CRBN/CDK9 in human HL-60 cells assessed as induction of CDK9 degradation measured after 3 days by Western blot analysis; format: cell-based
[4] = target: T1, Protein cereblon/Cyclin-dependent kinase 5 (Homo sapiens) (UniProt Q00535+Q96SW2); assay: Protac activity at CRBN/CDK5 in human THP-1 cells assessed as induction of CDK5 degradation at 4 to 64 nM measured after 3 days by Western blot analysis; format: cell-based; conditions: dose 4-64 nM, time 3.0 day
THP-1 = assay: Antiproliferative activity against human THP-1 cells measured after 1 to 3 days by CCK-8 assay; format: functional, cell-based
[5] = target: T2, Protein cereblon/Cyclin-dependent kinase 2 (Homo sapiens, UniProt P24941+Q96SW2); assay: Protac activity at CRBN/CDK2 in human HL-60 cells assessed as induction of CDK2 degradation by Western blot analysis; format: cell-based
[6] = system: Protein cereblon/Receptor-type tyrosine-protein kinase FLT3 (Homo sapiens), P36888+Q96SW2 [UNDEFINED MUTATION]; assay: Protac activity at CRBN/FLT3-ITD mutant in human MV4-11 cells assessed as induction of FLT3 degradation at 2 nM measured after 3 days by Western blot analysis relative to control; format: cell-based; conditions: time 3.0 day
OCI-AML2 = assay: Antiproliferative activity against human OCI-AML2 cells measured after 1 to 3 days by CCK-8 assay; format: functional, cell-based
[7] = target: T2, Protein cereblon/Cyclin-dependent kinase 2; assay: Protac activity at CRBN/CDK2 in human HL-60 cells assessed as induction of CDK2 degradation at 10 nM measured after 24 hrs in presence of CRBN ligand thalidomide by Western blot analysis; format: cell-based
[8] = target: T3, Protein cereblon/Cyclin-dependent kinase 6 (Homo sapiens, UniProt Q00534+Q96SW2); assay: Protac activity at CRBN/CDK6 in human THP-1 cells assessed as induction of CDK6 degradation at 4 to 64 nM measured after 3 days by Western blot analysis; format: cell-based; conditions: dose 4-64 nM, time 3.0 day
[9] = target: T2, Protein cereblon/Cyclin-dependent kinase 2; assay: Protac activity at CRBN/CDK2 in human HL-60 cells assessed as induction of CDK2 degradation by Western blot analysis relative to control; format: cell-based
[10] = target: T2, Protein cereblon/Cyclin-dependent kinase 2; assay: Protac activity at CRBN/CDK2 in human HL-60 cells assessed as induction of CDK2 degradation measured after 24 hrs by Western blot analysis relative to control; format: cell-based
MOLM-13 = assay: Antiproliferative activity against human MOLM-13 cells measured after 1 to 3 days by CCK-8 assay; format: functional, cell-based
[11] = target: T3, Protein cereblon/Cyclin-dependent kinase 6; assay: Protac activity at CRBN/CDK6 in human MV4-11 cells assessed as induction of CDK6 degradation at 2 to 32 nM measured after 3 days by Western blot analysis; format: cell-based; conditions: dose 2-32 nM, time 3.0 day
HL-60 [12] = assay: Induction of pro-differentiation of human HL-60 cells assessed as increase in CD11b expression at 6.25 nM measured after 5 days by immunostaining-based flow cytometry relative to 500 nM CPS2; format: functional; conditions: time 5 day
[13] = system: Protein cereblon/Receptor-type tyrosine-protein kinase FLT3 (Homo sapiens), P36888+Q96SW2 [UNDEFINED MUTATION]; assay: Protac activity at CRBN/FLT3-ITD mutant in human THP-1 cells assessed as induction of FLT3 degradation at 4 to 64 nM measured after 3 days by Western blot analysis; format: cell-based; conditions: dose 4-64 nM, time 3.0 day
[14] = target: Protein cereblon/Cyclin-dependent kinase 4 (Homo sapiens, UniProt P11802+Q96SW2); assay: Protac activity at CRBN/CDK4 in human Kasumi 1 cells assessed as induction of CDK4 degradation at 2 to 32 nM measured after 3 days by Western blot analysis; format: cell-based; conditions: dose 2-32 nM, time 3.0 day
MV4-11 = assay: Antiproliferative activity against human MV4-11 cells measured after 1 to 3 days by CCK-8 assay; format: functional, cell-based
HL-60 [15] = assay: Induction of pro-differentiation of human HL-60 cells assessed as increase in CD11b expression at 6.25 nM measured after 5 days by immunostaining-based flow cytometry relative to control; format: functional; conditions: time 5 day
[16] = target: T2, Protein cereblon/Cyclin-dependent kinase 2; assay: Protac activity at CRBN/CDK2 in human HL-60 cells assessed as induction of CDK2 degradation at 10 nM measured after 24 hrs in presence of NEDD8-activated E1 enzyme inhibitor MLN4924 by Western blot analysis; format: cell-based
[17] = target: Protein cereblon/Cyclin-dependent kinase 1 (Homo sapiens) (UniProt P06493+Q96SW2); assay: Protac activity at CRBN/CDK1 in human THP-1 cells assessed as induction of CDK1 degradation at 4 to 64 nM measured after 3 days by Western blot analysis; format: cell-based; conditions: dose 4-64 nM, time 3.0 day
[18] = target: T2, Protein cereblon/Cyclin-dependent kinase 2; assay: Protac activity at CRBN/CDK2 in human HL-60 cells assessed as induction of CDK2 degradation measured after 24 hrs by Western blot analysis; format: cell-based
[19] = target: T1, Protein cereblon/Cyclin-dependent kinase 5 (Homo sapiens); assay: Protac activity at CRBN/CDK5 in human MV4-11 cells assessed as induction of CDK5 degradation at 2 to 32 nM measured after 3 days by Western blot analysis; format: cell-based; conditions: dose 2-32 nM, time 3.0 day

Protein cereblon/Receptor-type tyrosine-protein kinase FLT3 (Homo sapiens), P36888+Q96SW2 [UNDEFINED MUTATION], sequence (P36888 whole entry, looked up, stated change not applied): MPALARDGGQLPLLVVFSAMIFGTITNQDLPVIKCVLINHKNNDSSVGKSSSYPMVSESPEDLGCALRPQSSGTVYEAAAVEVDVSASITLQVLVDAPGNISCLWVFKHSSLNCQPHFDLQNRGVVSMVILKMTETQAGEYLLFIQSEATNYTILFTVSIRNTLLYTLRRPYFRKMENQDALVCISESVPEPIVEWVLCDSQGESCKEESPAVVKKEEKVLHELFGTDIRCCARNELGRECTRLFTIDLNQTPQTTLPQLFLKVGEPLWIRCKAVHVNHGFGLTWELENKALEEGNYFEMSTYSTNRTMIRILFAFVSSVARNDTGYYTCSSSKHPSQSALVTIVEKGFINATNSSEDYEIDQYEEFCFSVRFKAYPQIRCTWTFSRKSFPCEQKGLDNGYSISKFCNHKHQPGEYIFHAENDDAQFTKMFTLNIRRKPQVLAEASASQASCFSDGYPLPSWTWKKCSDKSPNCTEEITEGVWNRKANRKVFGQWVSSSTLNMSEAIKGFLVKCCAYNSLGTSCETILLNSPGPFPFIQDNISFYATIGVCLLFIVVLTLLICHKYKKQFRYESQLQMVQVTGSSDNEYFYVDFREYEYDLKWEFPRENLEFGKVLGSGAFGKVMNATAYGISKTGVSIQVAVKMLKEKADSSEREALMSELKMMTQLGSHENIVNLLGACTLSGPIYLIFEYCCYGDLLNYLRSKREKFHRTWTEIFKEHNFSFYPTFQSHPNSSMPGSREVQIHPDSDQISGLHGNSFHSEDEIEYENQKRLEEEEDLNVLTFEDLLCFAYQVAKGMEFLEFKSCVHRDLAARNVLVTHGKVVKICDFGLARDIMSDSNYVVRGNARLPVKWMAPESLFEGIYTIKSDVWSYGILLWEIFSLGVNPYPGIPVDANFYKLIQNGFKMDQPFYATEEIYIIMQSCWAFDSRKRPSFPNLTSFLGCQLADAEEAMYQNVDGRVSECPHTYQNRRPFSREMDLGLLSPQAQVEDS
Protein cereblon/Receptor-type tyrosine-protein kinase FLT3 (Homo sapiens), P36888+Q96SW2 [UNDEFINED MUTATION], sequence (Q96SW2 whole entry, looked up, stated change not applied): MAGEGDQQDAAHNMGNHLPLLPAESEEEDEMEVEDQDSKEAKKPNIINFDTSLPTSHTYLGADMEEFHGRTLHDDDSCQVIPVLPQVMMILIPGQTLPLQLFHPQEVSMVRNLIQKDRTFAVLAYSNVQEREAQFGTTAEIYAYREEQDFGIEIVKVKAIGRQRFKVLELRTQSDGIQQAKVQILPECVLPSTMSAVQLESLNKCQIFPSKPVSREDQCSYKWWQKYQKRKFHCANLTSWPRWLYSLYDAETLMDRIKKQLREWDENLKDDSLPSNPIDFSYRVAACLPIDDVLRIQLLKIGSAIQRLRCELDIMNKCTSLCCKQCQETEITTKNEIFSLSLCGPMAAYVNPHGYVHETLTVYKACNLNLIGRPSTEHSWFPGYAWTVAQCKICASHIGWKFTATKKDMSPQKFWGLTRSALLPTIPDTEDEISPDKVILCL
T1 sequence (Q00535 whole entry, looked up): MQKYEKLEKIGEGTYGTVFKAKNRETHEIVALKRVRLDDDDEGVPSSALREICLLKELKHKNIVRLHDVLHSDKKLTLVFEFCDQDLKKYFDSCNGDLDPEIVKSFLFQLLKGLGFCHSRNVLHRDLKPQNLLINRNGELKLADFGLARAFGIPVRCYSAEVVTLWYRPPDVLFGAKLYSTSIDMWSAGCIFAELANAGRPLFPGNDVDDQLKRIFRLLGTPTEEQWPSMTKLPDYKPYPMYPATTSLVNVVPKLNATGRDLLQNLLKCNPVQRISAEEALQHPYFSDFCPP
T1 sequence (Q96SW2 whole entry, looked up): as the sequence (Q96SW2 whole entry, looked up, stated change not applied) above
T3 sequence (Q00534 whole entry, looked up): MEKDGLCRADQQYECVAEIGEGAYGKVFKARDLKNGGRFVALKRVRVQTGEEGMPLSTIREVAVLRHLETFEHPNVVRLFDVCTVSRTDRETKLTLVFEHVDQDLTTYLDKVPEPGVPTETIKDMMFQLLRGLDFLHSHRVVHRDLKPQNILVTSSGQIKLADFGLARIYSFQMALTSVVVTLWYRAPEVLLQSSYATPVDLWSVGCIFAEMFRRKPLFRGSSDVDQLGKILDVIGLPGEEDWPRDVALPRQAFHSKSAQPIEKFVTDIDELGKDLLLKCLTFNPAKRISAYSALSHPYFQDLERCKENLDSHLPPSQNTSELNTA
T3 sequence (Q96SW2 whole entry, looked up): as the sequence (Q96SW2 whole entry, looked up, stated change not applied) above
Protein cereblon/Receptor-type tyrosine-protein kinase FLT3, sequence (P36888 whole entry, looked up, change not shown): as the sequence (P36888 whole entry, looked up, stated change not applied) above
Protein cereblon/Receptor-type tyrosine-protein kinase FLT3, sequence (Q96SW2 whole entry, looked up, change not shown): as the sequence (Q96SW2 whole entry, looked up, stated change not applied) above
Protein cereblon/Cyclin-dependent kinase 9, sequence (P50750 whole entry): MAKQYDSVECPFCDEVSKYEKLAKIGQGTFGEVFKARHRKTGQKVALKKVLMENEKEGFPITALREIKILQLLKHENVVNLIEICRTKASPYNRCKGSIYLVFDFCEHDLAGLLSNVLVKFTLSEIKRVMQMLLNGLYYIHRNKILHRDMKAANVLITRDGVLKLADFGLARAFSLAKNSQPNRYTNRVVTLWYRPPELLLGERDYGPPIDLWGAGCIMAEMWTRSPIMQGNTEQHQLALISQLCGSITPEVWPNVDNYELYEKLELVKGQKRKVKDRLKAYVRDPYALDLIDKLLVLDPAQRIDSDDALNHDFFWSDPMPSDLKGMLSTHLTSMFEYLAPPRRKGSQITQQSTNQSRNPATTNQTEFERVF
Protein cereblon/Cyclin-dependent kinase 9, sequence (Q96SW2 whole entry): as the sequence (Q96SW2 whole entry, looked up, stated change not applied) above
Protein cereblon/Cyclin-dependent kinase 4, sequence (P11802 2-303 limits assumed): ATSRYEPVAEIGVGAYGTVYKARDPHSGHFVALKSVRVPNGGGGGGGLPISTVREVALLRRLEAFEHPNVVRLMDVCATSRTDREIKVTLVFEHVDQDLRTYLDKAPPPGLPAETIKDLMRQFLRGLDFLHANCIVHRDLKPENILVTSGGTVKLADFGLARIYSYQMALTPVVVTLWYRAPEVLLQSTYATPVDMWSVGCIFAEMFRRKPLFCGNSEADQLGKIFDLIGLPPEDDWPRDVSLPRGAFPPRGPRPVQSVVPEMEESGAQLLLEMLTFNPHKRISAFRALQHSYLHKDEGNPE
Protein cereblon/Cyclin-dependent kinase 4, sequence (Q96SW2 whole entry partner): as the sequence (Q96SW2 whole entry, looked up, stated change not applied) above
Protein cereblon/Cyclin-dependent kinase 1 (Homo sapiens), sequence (P06493 whole entry, looked up): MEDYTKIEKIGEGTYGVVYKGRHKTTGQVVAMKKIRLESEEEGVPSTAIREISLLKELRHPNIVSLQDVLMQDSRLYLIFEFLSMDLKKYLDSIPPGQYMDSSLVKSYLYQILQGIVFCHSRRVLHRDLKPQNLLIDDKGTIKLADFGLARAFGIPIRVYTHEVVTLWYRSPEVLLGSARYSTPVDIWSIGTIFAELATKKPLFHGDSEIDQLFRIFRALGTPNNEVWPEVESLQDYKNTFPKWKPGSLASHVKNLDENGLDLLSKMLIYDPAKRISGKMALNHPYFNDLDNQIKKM
Protein cereblon/Cyclin-dependent kinase 1 (Homo sapiens), sequence (Q96SW2 whole entry, looked up): as the sequence (Q96SW2 whole entry, looked up, stated change not applied) above

For `O=C1CCC(N2C(=O)c3ccc(N4CCC(CN5CCN(Cc6ccc(NC(=O)c7n[nH]cc7Nc7ncnc8[nH]ccc78)cc6)CC5)CC4)cc3C2=O)C(=O)N1` (stereo not drawn), the Activity (HL-60 [1]) was 29.09%, the DC50 [2] was 5.69 nM and the DC50 [3] was 4.34 nM. For the same compound, the Activity [4] was “inactive”, the IC50 (THP-1) was 37.1 nM and the DC50 [5] was 12.7 nM. The Activity [6] was 77%, the IC50 (OCI-AML2) was 17.9 nM and the Activity [7] was “inactive”. The Activity [8] was “Active”, the Emax [9] was 81.9% and the Emax [10] was 86.8%. For the same compound, the IC50 (MOLM-13) was 4.52 nM, the Activity [11] was “Active” and the “fold change (FC)” value (HL-60 [12]) was 2.1. The Activity [13] was “Active”, the Activity [14] was “Active” and the IC50 (MV4-11) was 2.9 nM. The “fold change (FC)” value (HL-60 [15]) was 7.2, the Activity [16] was “inactive” and the Activity [17] was “inactive”. For the same compound, the DC50 [18] was 18.7 nM and the Activity [19] was “inactive”.
